Assay results from US10556892B2, “Piperazinyl methanone NAAA inhibitors” (priority 2016, dated 2020).
Converted amounts (≈) assume the structure as drawn. Where two headings read alike, the source gives them in different places. One block for each molecule: values may come before it.

What was measured:
[1] = Aqueous kinetic solubility in PBS pH 7.4; assay type: physicochemical; conditions: pH 7.4, aqueous buffer, kinetic from dmso stock; for solubility at 24 h: PBS
[2] = In vitro metabolic stability, mouse liver microsomes; assay type: in vitro ADME; set-up: dose or concentration left out as unconfirmed
Method: In vitro metabolic stability. Microsomes stability experiments. In vitro incubation with mouse microsomes (NADPH and UDPG system). […] At time zero, cofactors were added. […] The mixture was kept at 37° C. under shaking. Aliquots (50 mL) were taken at various time points and crashed with 0.15 mL of CH3CN spiked with 500 nM warfarin (internal standard). Reference incubation, with microsomes but without cofactors, was kept at 37° C. and sampled at the end of the time course. After vortexing and centrifugation, 3 mL of supernatant were analyzed by LCMS/MS and detected by multiple reaction monitoring (MRM).

[3] = Plasma stability; assay type: in vitro ADME; set-up: dose or concentration left out as unconfirmed; conditions: mouse plasma
[4] = system: h-AC
[5] = target: h-AC (Homo sapiens (Human), UniProt Q13510); assay: biochemical; conditions: read-out: h-AC inh (%) 30 μM
[6] = Pharmacokinetics study in mice; assay type: in vivo, mouse; conditions: for Kp: brain and plasma
Method: Compounds were administered orally or intravenously to C57B6/J mice at 3 mg/kg and 3 mg/kg dose, respectively. Vehicle was PEG400/Tween80/saline solution at 15/15/70% in volume, respectively. Three animals per dose were used. […] Control animals treated with vehicle were also included in the study. Animals were sacrificed at time-points and blood and brain samples were collected. […] Brain samples were homogenized in RIPA buffer (150 mM NaCl, 1.0% Triton X-100, 0.5% sodium deoxycholate, 0.1% sodium dodecyl sulfate, 50 mM Tris, pH 8.0) and were then split in two aliquots kept at −80° C. until analysis. An aliquot was used for compound brain level evaluations, following the same procedure described below for plasma samples. The second aliquot was kept for protein content evaluation by bicinchoninic acid (BCA) assay. Samples (plasma and brain homogenate) were thawed in an ice bath, then centrifuged for 20 min and an aliquot of each (50 μL) was transferred into a 96-deepwell plate and added with 150 μl of the extraction solution, consisting of cold acetonitrile spiked with 200 nM of a structural analog of the analyte (14), closely eluting with the analyte itself, as internal standard. After agitation (3 min) the plate was centrifuged at 3000×g for 20 min at 4° C. 80 μl of supernatant was then transferred in a 96-well plate and added with 80 μL of H2O. Standard compound was spiked in net solvent (PBS pH 7.4 added with 20% CH3CN) to prepare a calibration curve over the 1 nM-10 μM range. 3 quality controls samples were also prepared spiking the compound in blank mouse plasma to final 20, 200 and 2000 nM concentrations. Calibrators and QCs were crashed with the same extraction solution used for the plasma samples. Dosing solutions, previously diluted 100000 fold in the net solvent, were also included in the samples and tested. […] Column and UPLC-MS system were purchased from Waters Inc. Milford, USA. Flow rate was set 0.5 mL/min. Eluents were A=H2O and B═CH3CN, both added with 0.1% formic acid. […] The time/concentration profiles measured with the above mentioned system were then analyzed using PK Solutions Excel application (Summit Research Service, USA) to derive the pharmacokinetic data (Maximum observed concentration (Cmax); maximum time (Tmax); cumulative area under curve (AUC) for experimental time points; distribution volume (Vd); systemic clearance (Cl)).

[7] = 25 °C, Table 10, read-out: Aq. Kinetic Solubility
[8] = phosphate-buffered saline (PBS), 25 °C, Table 11, read-out: Aq. Kinetic Solubility
[9] = pH 7.4, read-out: m-LM stab. t1/2
[10] = phosphate-buffered saline (PBS) pH 7.4, 25 °C, Table 9, read-out: Aq. Skin
[11] = 3 mg/kg, CD1 mouse, iv 3 mpk, brain
[12] = 3 mg/kg, CD1 mouse, iv 3 mpk, plasma
[13] = C57B6/J, 10 mg/kg, C57 mouse, po 10 mpk, brain
[14] = C57B6/J, 10 mg/kg, C57 mouse, po 10 mpk, plasma
[15] = C57B6/J, 30 mg/kg, C57 mouse, po 30 mpk, brain
[16] = C57B6/J, 30 mg/kg, C57 mouse, po 30 mpk, plasma
[17] = phosphate-buffered saline (PBS), 25 °C, Table 7
[18] = phosphate-buffered saline (PBS), 25 °C, Table 9, read-out: Aq. Skin
[19] = phosphate-buffered saline (PBS), 25 °C, Table 10, read-out: Aq. Kinetic Solubility

Structure (SMILES): O=C(c1ccccc1S(=O)(=O)CCCO)N1CCN(c2nc3ccc(F)cc3s2)CC1 [CH2CH2CH2OH]
solubility kinetic [1, 7]: 49 µM (≈ 22.7 µg/mL)

Structure (SMILES): CCS(=O)(=O)c1ccccc1C(=O)N1CCN(c2nc3ccc(C)cc3s2)CC1 [CH3]
solubility kinetic at 24 h [1, 8]: 181 µM (≈ 77.8 µg/mL)

Structure (SMILES): CCS(=O)(=O)c1ccccc1C(=O)N1CCN(c2nc3ccc(Cl)cc3s2)CC1 [Cl]
solubility kinetic at 24 h [1, 8]: 2 µM (≈ 0.9 µg/mL)

Structure (SMILES): CCS(=O)(=O)c1ccccc1C(=O)N1CCN(c2nc3ccc(F)cc3s2)CC1 [Cmpd 1]
half-life [2, 9]: > 1 h
half-life ([3]; read-out: m-plasma stab. t1/2): > 2 h

Structure (SMILES): CCS(=O)(=O)c1ccccc1C(=O)N1CCN(c2nc3ccccc3o2)CC1 [Cmpd 6]
solubility kinetic at 24 h [1, 10]: > 250 µM
half-life [2, 9]: 0.45 h
half-life ([3]; read-out: m-plasma stab. t1/2): > 2 h
h-AC inh (%) 30 μM [4]: 64%
inhibition at 30 µM [5]: 0%

Structure (SMILES): CCS(=O)(=O)c1ccccc1C(=O)N1CCN(c2nc3c(F)cc(F)cc3s2)CC1 [Cmpd 34]
h-AC inh (%) 30 μM [4]: 17%
inhibition at 30 µM [5]: 4%

Structure (SMILES): CCS(=O)(=O)c1ccccc1C(=O)N1CCN(c2nc3c(F)cccc3s2)CC1 [Compound 8]
half-life [2, 9]: 0.267 h
half-life ([3]; read-out: m-plasma stab. t1/2): > 2 h

Structure (SMILES): CCS(=O)(=O)c1ccccc1C(=O)N1CCN(c2nc3ccc(F)cc3s2)C[C@@H]1C [Compound 8]
solubility at 24 h ([1]; phosphate-buffered saline (PBS), 25 °C, Table 5): 165 µM (≈ 73.8 µg/mL)
solubility at 24 h [1, 17]: 139 ± 1 µM (≈ 62.2 µg/mL)
half-life ([2]; pH 7.4, NADPH, read-out: MLM (NADPH) t1/2): > 1 h
half-life ([3]; Table 5, read-out: Plasma t1/2): > 2 h
Kp ([6]; C57B6/J, mouse, 3 mg/kg, mice, oral administration, read-out: brain-to-plasma ratio): 0.25
Tmax ([6]; C57B6/J, mouse, plasma, oral 3 mg/kg, mice): 0.5 h
AUC ([6]; C57B6/J, mouse, plasma, oral 3 mg/kg, mice, read-out: AUCplasma): 988 ng·h/mL
Cmax ([6]; C57B6/J, mouse, oral 3 mg/kg, mice, plasma): 613 ng/mL

Structure (SMILES): CCS(=O)(=O)c1ccccc1C(=O)N1CCN(c2nc3cccc(F)c3s2)CC1 [Compound 9]
half-life [2, 9]: 0.267 h
half-life ([3]; read-out: m-plasma stab. t1/2): > 2 h
inhibition at 30 µM [5]: -3%

Structure (SMILES): CCCS(=O)(=O)c1ccccc1C(=O)N1CCN(c2nc3ccc(F)cc3s2)CC1 [Compound 11]
half-life [2, 9]: > 1 h
half-life ([3]; read-out: m-plasma stab. t1/2): > 2 h
inhibition at 30 µM [5]: 2%

Structure (SMILES): O=C(c1ccccc1S(=O)(=O)C1CCC1)N1CCN(c2nc3ccc(F)cc3s2)CC1 [Compound 12]
half-life [2, 9]: > 1 h
half-life ([3]; read-out: m-plasma stab. t1/2): > 2 h
inhibition at 30 µM [5]: -3%

Structure (SMILES): O=C(c1ccccc1S(=O)(=O)C1CC1)N1CCN(c2nc3ccc(F)cc3s2)CC1 [Compound 22]
half-life [2, 9]: > 1 h
half-life ([3]; read-out: m-plasma stab. t1/2): > 2 h
inhibition at 30 µM [5]: -1%

Structure (SMILES): CCS(=O)(=O)c1ccccc1C(=O)N1CCN(c2nc3ccc(F)cc3o2)C[C@@H]1C [Compound 26]
solubility kinetic at 24 h [1, 10]: 6 µM (≈ 2.59 µg/mL)
half-life [2, 9]: > 1 h
half-life ([3]; read-out: m-plasma stab. t1/2): > 2 h
inhibition at 30 µM [5]: -12%

Structure (SMILES): C[C@H]1CN(c2nc3ccc(F)cc3o2)CCN1C(=O)c1ccccc1S(=O)(=O)C1CC1 [Compound 27]
solubility kinetic at 24 h [1, 10]: 124 µM (≈ 55 µg/mL)
half-life ([3]; read-out: m-plasma stab. t1/2): > 2 h
inhibition at 30 µM [5]: -12%

Structure (SMILES): CCCS(=O)(=O)c1ccccc1C(=O)N1CCN(c2nc3ccc(F)cc3o2)C[C@@H]1C [Compound 28]
solubility kinetic at 24 h [1, 10]: 45 µM (≈ 20 µg/mL)
half-life ([3]; read-out: m-plasma stab. t1/2): > 2 h
inhibition at 30 µM [5]: -11%

Structure (SMILES): CCS(=O)(=O)c1ccccc1C(=O)N1CCN(c2nc3ccc(F)c(F)c3s2)C[C@@H]1C [Compound 36]
solubility kinetic at 24 h [1, 18]: 1 µM (≈ 0.466 µg/mL)
half-life [2, 9]: > 1 h
half-life ([3]; read-out: m-plasma stab. t1/2): > 2 h

Structure (SMILES): CCCS(=O)(=O)c1ccccc1C(=O)N1CCN(c2nc3ccc(F)c(F)c3s2)C[C@@H]1C [Compound 37]
solubility kinetic at 24 h [1, 18]: 8 µM (≈ 3.84 µg/mL)
half-life [2, 9]: > 1 h
half-life ([3]; read-out: m-plasma stab. t1/2): > 2 h
inhibition at 30 µM [5]: 9%

Structure (SMILES): CCCS(=O)(=O)c1ccccc1C(=O)N1CCN(c2nc3ccc(F)cc3s2)C[C@@H]1C [Compound 41, [(2S)-4-(6-fluoro-1,3-benzothiazol-2-yl)-2-methyl-piperazin-1-yl]-(2-propylsulfonylphenyl)methanone]
solubility at 24 h [1, 17]: 76 ± 1 µM (≈ 35.1 µg/mL)

Structure (SMILES): CCS(=O)(=O)c1ccccc1C(=O)N1CCN(c2nc3ccc(OC)cc3s2)CC1 [OMe]
solubility kinetic at 24 h [1, 8]: 39 µM (≈ 17.4 µg/mL)

Structure (SMILES): O=C(c1ccccc1S(=O)(=O)C1CCC1)N1CCN(c2nc3ccc(F)cc3s2)CC1 [c-butyl]
solubility kinetic [1, 7]: 5 µM (≈ 2.3 µg/mL)

Structure (SMILES): CC(C)S(=O)(=O)c1ccccc1C(=O)N1CCN(c2nc3ccc(F)cc3s2)CC1 [i-Pr]
solubility kinetic at 24 h [1, 19]: < 1 µM

Structure (SMILES): O=C(c1ccccc1S(=O)(=O)C1COC1)N1CCN(c2nc3ccc(F)cc3s2)CC1 [oxetan-3-yl]
solubility kinetic at 24 h [1, 19]: 22 µM (≈ 10.2 µg/mL)

Now from value to molecule, other results behind:

solubility kinetic [1, 7]: < 1 µM
Structure (SMILES): CCCCS(=O)(=O)c1ccccc1C(=O)N1CCN(c2nc3ccc(F)cc3s2)CC1 [CH2CH2CH2CH3]

solubility kinetic [1, 7]: < 1 µM
Structure (SMILES): CCCS(=O)(=O)c1ccccc1C(=O)N1CCN(c2nc3ccc(F)cc3s2)CC1 [CH2CH2CH3]

solubility kinetic at 24 h [1, 10]: 7 µM (≈ 3.16 µg/mL)
half-life [2, 9]: > 1 h
half-life ([3]; read-out: m-plasma stab. t1/2): > 2 h
inhibition at 30 µM [5]: 0%
Structure (SMILES): CCS(=O)(=O)c1ccccc1C(=O)N1CCN(c2nc3ccc(F)c(F)c3s2)CC1 [Cmpd 35]
h-AC inh (%) 30 μM [4]: 12%

Cmax [6, 11]: 1610 ng/mL
Tmax [6, 11]: 0.0833 h
half-life [6, 11]: 0.725 h
AUC ([6]; 3 mg/kg, CD1 mouse, iv 3 mpk, brain, read-out: AUC): 867 ng·h/mL
Cmax [6, 12]: 1810 ng/mL
Tmax [6, 12]: 0.0833 h
clearance [6, 12]: 31 mL/min/kg
half-life [6, 12]: 0.893 h
AUC ([6]; 3 mg/kg, CD1 mouse, iv 3 mpk, plasma, read-out: AUC): 1550 ng·h/mL
Vd ([6]; 3 mg/kg, CD1 mouse, iv 3 mpk, plasma, read-out: Vss): 2.4 L/kg
Cmax [6, 13]: 392 ng/mL
Tmax [6, 13]: 0.5 h
half-life [6, 13]: 1.22 h
AUC ([6]; C57B6/J, 10 mg/kg, C57 mouse, po 10 mpk, brain, read-out: AUC): 1340 ng·h/mL
Cmax [6, 14]: 1470 ng/mL
Tmax [6, 14]: 0.5 h
half-life [6, 14]: 1.34 h
AUC ([6]; C57B6/J, 10 mg/kg, C57 mouse, po 10 mpk, plasma, read-out: AUC): 5340 ng·h/mL
Cmax [6, 15]: 2240 ng/mL
Tmax [6, 15]: 0.25 h
half-life [6, 15]: 3.14 h
AUC ([6]; C57B6/J, 30 mg/kg, C57 mouse, po 30 mpk, brain, read-out: AUC): 3230 ng·h/mL
Cmax [6, 16]: 5170 ng/mL
Tmax [6, 16]: 0.25 h
half-life [6, 16]: 1.41 h
AUC ([6]; C57B6/J, 30 mg/kg, C57 mouse, po 30 mpk, plasma, read-out: AUC): 46200 ng·h/mL
Kp ([6]; C57B6/J, 10 mg/kg, C57 mouse, po 10 mpk, read-out: AUCbrain/AUCplasma): 0.251
Kp ([6]; C57B6/J, 30 mg/kg, C57 mouse, po 30 mpk, read-out: AUCbrain/AUCplasma): 0.07
Total AUC (AUCplasma + AUCbrain) ([6]; C57 mouse, po 10 mpk): 6683
% distribution (AUC organ/(AUCplasma + AUCbrain)) ([6]; C57 mouse, po 10 mpk, brain): 20%
% distribution (AUC organ/(AUCplasma + AUCbrain)) ([6]; C57 mouse, po 10 mpk, plasma): 80%
Cl ([6]; C57 mouse, po 10 mpk, plasma): 30.429 mL/min/kg
Vss ([6]; C57 mouse, po 10 mpk, plasma): 3.53 L/kg
Total AUC ([6]; C57 mouse, po 30 mpk): 49447.7
% distribution ([6]; C57 mouse, po 30 mpk, brain): 7%
% distribution ([6]; C57 mouse, po 30 mpk, plasma): 93%
Cl ([6]; C57 mouse, po 30 mpk, plasma): 10.817 mL/min/kg
Vss ([6]; C57 mouse, po 30 mpk, plasma): 1.32 L/kg
Total AUC ([6]; CD1 mouse, iv 3 mpk): 2421.5
% distribution ([6]; CD1 mouse, iv 3 mpk, brain): 36%
% distribution ([6]; CD1 mouse, iv 3 mpk, plasma): 64%
Kp ([6]; 3 mg/kg, CD1 mouse, iv 3 mpk, read-out: AUCbrain/AUCplasma): 0.557
Structure (SMILES): CCS(=O)(=O)c1ccccc1C(=O)N1CCN(c2nc3ccc(F)cc3s2)C[C@@H]1C [Compound 8, (2-ethylsulfonylphenyl)-[(2S)-4-(6-fluoro-1,3-benzothiazol-2-yl)-2-methyl-piperazin-1-yl]methanone]

half-life [2, 9]: > 1 h
half-life ([3]; read-out: m-plasma stab. t1/2): > 2 h
Structure (SMILES): O=C(c1ccccc1S(=O)(=O)C1COC1)N1CCN(c2nc3ccc(F)cc3s2)CC1 [Compound 13]

inhibition at 30 µM [5]: 25%
Structure (SMILES): CCS(=O)(=O)c1ccccc1C(=O)N1CCN(c2nc3ccc(F)cc3s2)C(C)C1 (stereo not shown) [Compound 16]

inhibition at 30 µM [5]: 1%
Structure (SMILES): CCS(=O)(=O)c1ccccc1C(=O)N1CCN(c2nc3ccc(F)cc3s2)[C@H](C)C1 [Compound 24]

solubility kinetic at 24 h [1, 18]: 14 µM (≈ 6.69 µg/mL)
half-life ([3]; read-out: m-plasma stab. t1/2): > 2 h
Structure (SMILES): C[C@H]1CN(c2nc3ccc(F)c(F)c3s2)CCN1C(=O)c1ccccc1S(=O)(=O)C1CC1 [Compound 38]

solubility at 24 h [1, 17]: 115 ± 7 µM (≈ 52.9 µg/mL)
Structure (SMILES): C[C@H]1CN(c2nc3ccc(F)cc3s2)CCN1C(=O)c1ccccc1S(=O)(=O)C1CC1 [Compound 42, (2-cyclopropylsulfonylphenyl)-[(2S)-4-(6-fluoro-1,3-benzothiazol-2-yl)-2-methyl-piperazin-1-yl]methanone]

solubility kinetic at 24 h [1, 8]: 196 µM (≈ 81.4 µg/mL)
Structure (SMILES): CCS(=O)(=O)c1ccccc1C(=O)N1CCN(c2nc3ccccc3s2)CC1 [H]

solubility kinetic [1, 7]: < 1 µM
Structure (SMILES): O=C(c1ccccc1S(=O)(=O)C1CCCC1)N1CCN(c2nc3ccc(F)cc3s2)CC1 [c-pentyl]

solubility kinetic [1, 7]: 10 µM (≈ 4.46 µg/mL)
Structure (SMILES): O=C(c1ccccc1S(=O)(=O)C1CC1)N1CCN(c2nc3ccc(F)cc3s2)CC1 [c-propyl]
